Source: patent US11643438B2, “Antimicrobial peptides and methods of use” (priority 2018, dated 2023)
Values after ≈ are worked out from the molar mass of the structure shown. Read-outs that look alike come from different tables or passages of the source. Blank lines part the entries; values can stand above or below the molecule they belong to. *1 amine or outer side, *2 acyl side, *3 side chain or, on linkers, in order; H or OH if unused. Where a SMILES comes first, the peptide text is derived from it. [ ]: non-standard residue; d: D form. X2 = CC[C@H](C)C[C@H](C)C[C@H](C)C[C@H](N[*:1])C(=O)[*:2]; X1 = CC[C@@H](C)[C@@H](O[*:1])C(=O)[*:2]; NMeVal(β-OH) = CN[C@H](C(=O)O)C(C)(C)O; aIle = CC[C@@H](C)[C@H](N)C(=O)O; NMeV = CN[C@H](C(=O)O)C(C)C; Sar = CNCC(=O)O

Legend:
Candida auris 388 = assay: Antifungal MIC80 assay, clinical yeast isolates
[1] = tested on: Aspergillus flavus NRRL485; assay: Antifungal MIC80/MFC assay, fungal pathogen panel
Candida glabrata 4 = assay: Antifungal MIC80 assay, clinical yeast isolates
Candida auris 382 = assay: Antifungal MIC80 assay, clinical yeast isolates
Candida parapsilosis 15 = assay: Antifungal MIC80 assay, clinical yeast isolates
Candida auris 386 = assay: Antifungal MIC80 assay, clinical yeast isolates
Candida krusei 397 = assay: Antifungal MIC80 assay, clinical yeast isolates
[2] = tested on: Aspergillus terreus 191A6; assay: Antifungal MIC80/MFC assay, fungal pathogen panel
Candida auris 385 = assay: Antifungal MIC80 assay, clinical yeast isolates
Candida parapsilosis 18 = assay: Antifungal MIC80 assay, clinical yeast isolates
Candida albicans 21 = assay: Antifungal MIC80 assay, clinical yeast isolates
[3] = tested on: 44 clinical yeast isolates (Candida, Kodameae, Saccharomyces); assay: Antifungal MIC80 assay, summary over 44 clinical yeast isolates
Candida glabrata 22 = assay: Antifungal MIC80 assay, clinical yeast isolates
[4] = tested on: Aspergillus niger FGSC A732; assay: Antifungal MIC80/MFC assay, fungal pathogen panel
[5] = tested on: Mucor circinelloides 235C7; assay: Antifungal MIC80/MFC assay, fungal pathogen panel
[6] = tested on: Aspergillus fumigatus MYA 3627; assay: Antifungal MIC80/MFC assay, fungal pathogen panel; conditions: MYA3627
Candida haemulonii 393 = assay: Antifungal MIC80 assay, clinical yeast isolates
Candida auris 383 = assay: Antifungal MIC80 assay, clinical yeast isolates
[7] = tested on: Hamigera insecticola NRRL35442; assay: Antifungal MIC80/MFC assay, fungal pathogen panel
Candida lusitaniae 398 = assay: Antifungal MIC80 assay, clinical yeast isolates
Candida albicans SC5314 = assay: Antifungal MIC80/MFC assay, fungal pathogen panel
[8] = tested on: Saccharomyces cerevisiae 399; assay: Antifungal MIC80 assay, clinical yeast isolates
Candida albicans 5 = assay: Antifungal MIC80 assay, clinical yeast isolates
Candida krusei 25 = assay: Antifungal MIC80 assay, clinical yeast isolates
Candida parapsilosis 7 = assay: Antifungal MIC80 assay, clinical yeast isolates
[9] = tested on: Candida parapsilosis ATCC 22019 (Y-12969); assay: Antifungal MIC80/MFC assay, fungal pathogen panel
[10] = tested on: Aspergillus fumigatus NRRL5109; assay: Antifungal MIC80/MFC assay, fungal pathogen panel
Candida kefyr 12 = assay: Antifungal MIC80 assay, clinical yeast isolates
Candida glabrata 16 = assay: Antifungal MIC80 assay, clinical yeast isolates
Candida auris 390 = assay: Antifungal MIC80 assay, clinical yeast isolates
Candida parapsilosis 9 = assay: Antifungal MIC80 assay, clinical yeast isolates
[11] = tested on: Saccharomyces cerevisiae 400; assay: Antifungal MIC80 assay, clinical yeast isolates
Candida albicans 14 = assay: Antifungal MIC80 assay, clinical yeast isolates
Candida tropicalis 13 = assay: Antifungal MIC80 assay, clinical yeast isolates
Candida glabrata 11 = assay: Antifungal MIC80 assay, clinical yeast isolates
Candida glabrata 2 = assay: Antifungal MIC80 assay, clinical yeast isolates
[12] = Lodderomyces parapsilosis, ATCC22019
[13] = Candida parapsilosis ATCC 22019 (Y-12969)

Compound: CC[C@H](C)C[C@H](C)C[C@H](C)C[C@@H]1NC(=O)[C@H](C(C)C)N(C)C(=O)[C@@H]([C@H](C)CC)OC(=O)[C@H](C(C)(C)O)N(C)C(=O)[C@H](CC(C)C)NC(=O)[C@H](C(C)C)N(C)C(=O)[C@H]([C@H](C)CC)NC(=O)[C@@H]2CCCN2C(=O)CN(C)C1=O [Compound 1, persephacin] (cyclo(L[NMeVal(β-OH)][X1][NMeV][X2][Sar]P[aIle][NMeV]))
- MIC80 (Candida auris 388; Candidozyma auris, 388): 2.5 µM (≈ 2.69 µg/mL)
- MFC [1]: > 10 µM
- MIC80 [1]: 1.25 µM (≈ 1.34 µg/mL)
- MIC80 (Candida glabrata 4; Nakaseomyces glabratus, 4): 1.25 µM (≈ 1.34 µg/mL)
- MIC80 (Candida auris 382; Candidozyma auris, 382): 2.5 µM (≈ 2.69 µg/mL)
- MIC80 (Candida parapsilosis 15; Lodderomyces parapsilosis, 15): 2.5 µM (≈ 2.69 µg/mL)
- MIC80 (Candida auris 386; Candidozyma auris, 386): 2.5 µM (≈ 2.69 µg/mL)
- MIC80 (Candida krusei 397; Pichia kudriavzevii, 397): 2.5 µM (≈ 2.69 µg/mL)
- MFC [2]: > 10 µM
- MIC80 [2]: 2.5 µM (≈ 2.69 µg/mL)
- MIC80 (Candida auris 385; Candidozyma auris, 385): 2.5 µM (≈ 2.69 µg/mL)
- MIC80 (Candida parapsilosis 18; Lodderomyces parapsilosis, 18): 1.25 µM (≈ 1.34 µg/mL)
- MIC80 (Candida albicans 21): 1.25 µM (≈ 1.34 µg/mL)
- MIC80 ([3]; read-out: maximum MIC80 value): 5 µM (≈ 5.38 µg/mL)
- MIC80 ([3]; read-out: median MIC80): 2.5 µM (≈ 2.69 µg/mL)
- MIC80 ([3]; read-out: minimum MIC80 value): 0.15 µM (≈ 0.161 µg/mL)
- MIC80 (Candida glabrata 22; Nakaseomyces glabratus, 22): 0.6 µM (≈ 0.645 µg/mL)
- MFC ([4]; Aspergillus niger, FGSCA732): > 10 µM
- MIC80 ([4]; Aspergillus niger, FGSCA732): 1.25 µM (≈ 1.34 µg/mL)
- MFC [5]: > 10 µM
- MIC80 [5]: > 10 µM
- MFC [6]: 5 µM (≈ 5.38 µg/mL)
- MIC80 [6]: 2.5 µM (≈ 2.69 µg/mL)
- MIC80 (Candida haemulonii 393; Candidozyma haemuli, 393): 0.3 µM (≈ 0.323 µg/mL)
- MIC80 (Candida auris 383; Candidozyma auris, 383): 2.5 µM (≈ 2.69 µg/mL)
- MFC [7]: 5 µM (≈ 5.38 µg/mL)
- MIC80 [7]: 0.6 µM (≈ 0.645 µg/mL)
- MIC80 (Candida lusitaniae 398; Clavispora lusitaniae, 398): 2.5 µM (≈ 2.69 µg/mL)
- MFC (Candida albicans SC5314): 1.25 µM (≈ 1.34 µg/mL)
- MIC80 (Candida albicans SC5314): 0.3 µM (≈ 0.323 µg/mL)
- MIC80 ([8]; Saccharomyces cerevisiae, 399): 2.5 µM (≈ 2.69 µg/mL)
- MIC80 (Candida albicans 5): 1.25 µM (≈ 1.34 µg/mL)
- MIC80 (Candida krusei 25; Pichia kudriavzevii, 25): 1.25 µM (≈ 1.34 µg/mL)
- MIC80 (Candida parapsilosis 7; Lodderomyces parapsilosis, 7): 2.5 µM (≈ 2.69 µg/mL)
- MFC [9, 12]: 2.5 µM (≈ 2.69 µg/mL)
- MIC80 [9, 12]: 2.5 µM (≈ 2.69 µg/mL)
- MFC [10]: 5 µM (≈ 5.38 µg/mL)
- MIC80 [10]: 2.5 µM (≈ 2.69 µg/mL)
- MIC80 (Candida kefyr 12; Kluyveromyces marxianus, 12): 1.25 µM (≈ 1.34 µg/mL)
- MIC80 (Candida glabrata 16; Nakaseomyces glabratus, 16): 0.3 µM (≈ 0.323 µg/mL)
- MIC80 (Candida auris 390; Candidozyma auris, 390): 2.5 µM (≈ 2.69 µg/mL)
- MIC80 (Candida parapsilosis 9; Lodderomyces parapsilosis, 9): 2.5 µM (≈ 2.69 µg/mL)
- MIC80 ([11]; Saccharomyces cerevisiae, 400): 2.5 µM (≈ 2.69 µg/mL)
- MIC80 (Candida albicans 14): 0.6 µM (≈ 0.645 µg/mL)
- MIC80 (Candida tropicalis 13): 0.625 µM (≈ 0.672 µg/mL)
- MIC80 (Candida glabrata 11; Nakaseomyces glabratus, 11): 0.6 µM (≈ 0.645 µg/mL)
- MIC80 (Candida glabrata 2; Nakaseomyces glabratus, 2): 0.15 µM (≈ 0.161 µg/mL)

- MIC80 (Candida auris 388; Candida auris 388, multidrug-resistant): 2.5 µM (≈ 2.31 µg/mL)
- MIC80 [1]: 5 µM (≈ 4.62 µg/mL)
- MIC80 (Candida glabrata 4; Candida glabrata 4): 1.25 µM (≈ 1.16 µg/mL)
- MIC80 (Candida auris 382; Candida auris 382, multidrug-resistant): 1.25 µM (≈ 1.16 µg/mL)
- MIC80 (Candida parapsilosis 15; Candida parapsilosis 15): 2.5 µM (≈ 2.31 µg/mL)
- MIC80 (Candida auris 386; Candida auris 386, multidrug-resistant): 2.5 µM (≈ 2.31 µg/mL)
- MIC80 (Candida krusei 397; Candida krusei 397, multidrug-resistant): 2.5 µM (≈ 2.31 µg/mL)
- MIC80 [2]: 2.5 µM (≈ 2.31 µg/mL)
- MIC80 (Candida auris 385; Candida auris 385, multidrug-resistant): 2.5 µM (≈ 2.31 µg/mL)
- MIC80 (Candida parapsilosis 18; Candida parapsilosis 18): 1.25 µM (≈ 1.16 µg/mL)
- MIC80 (Candida albicans 21): 0.6 µM (≈ 0.554 µg/mL)
- maximum MIC80 value ([3]; 44 clinical yeast isolates): 2.5 µM
- median MIC80 ([3]; 44 clinical yeast isolates): 1.25 µM
- minimum MIC80 value ([3]; 44 clinical yeast isolates): 0.15 µM
- MIC80 (Candida glabrata 22; Candida glabrata 22): 0.3 µM (≈ 0.277 µg/mL)
- MIC80 ([4]; Aspergillus niger FGSC A732): 0.6 µM (≈ 0.554 µg/mL)
- MIC80 [5]: 1.25 µM (≈ 1.16 µg/mL)
- MIC80 [6]: 2.5 µM (≈ 2.31 µg/mL)
- MIC80 (Candida haemulonii 393; Candida haemulonii 393, multidrug-resistant): 5 µM (≈ 4.62 µg/mL)
- MIC80 (Candida auris 383; Candida auris 383, multidrug-resistant): 2.5 µM (≈ 2.31 µg/mL)
- MIC80 (Candida lusitaniae 398; Candida lusitaniae 398, multidrug-resistant): 0.6 µM (≈ 0.554 µg/mL)
- MIC80 (Candida albicans SC5314): 0.6 µM (≈ 0.554 µg/mL)
- MIC80 ([8]; Saccharomyces cerevisiae 399, multidrug-resistant): 2.5 µM (≈ 2.31 µg/mL)
- MIC80 (Candida albicans 5): 0.6 µM (≈ 0.554 µg/mL)
- MIC80 (Candida krusei 25; Candida krusei 25): 1.25 µM (≈ 1.16 µg/mL)
- MIC80 (Candida parapsilosis 7; Candida parapsilosis 7): 2.5 µM (≈ 2.31 µg/mL)
- MIC80 [9, 13]: 1.25 µM (≈ 1.16 µg/mL)
- MIC80 [10]: 2.5 µM (≈ 2.31 µg/mL)
- MIC80 (Candida kefyr 12; Candida kefyr 12): 0.3 µM (≈ 0.277 µg/mL)
- MIC80 (Candida glabrata 16; Candida glabrata 16): 0.15 µM (≈ 0.139 µg/mL)
- MIC80 (Candida auris 390; Candida auris 390, multidrug-resistant): 2.5 µM (≈ 2.31 µg/mL)
- MIC80 (Candida parapsilosis 9; Candida parapsilosis 9): 2.5 µM (≈ 2.31 µg/mL)
- MIC80 ([11]; Saccharomyces cerevisiae 400, multidrug-resistant): 1.25 µM (≈ 1.16 µg/mL)
- MIC80 (Candida albicans 14): 1.25 µM (≈ 1.16 µg/mL)
- MIC80 (Candida tropicalis 13): 0.15 µM (≈ 0.139 µg/mL)
- MIC80 (Candida glabrata 11; Candida glabrata 11): 0.3 µM (≈ 0.277 µg/mL)
- MIC80 (Candida glabrata 2; Candida glabrata 2): 0.3 µM (≈ 0.277 µg/mL)
Compound: C[C@@H]1[C@H](O)[C@@H](C)/C=C/C=C/C=C/C=C/C=C/C=C/C=C/[C@H](O[C@@H]2O[C@H](C)[C@@H](O)[C@H](N)[C@@H]2O)C[C@@H]2O[C@](O)(C[C@@H](O)C[C@@H](O)[C@H](O)CC[C@@H](O)C[C@@H](O)CC(=O)O[C@H]1C)C[C@H](O)[C@H]2C(=O)O [AMB, amphotericin B]
- MFC [1]: 10 µM (≈ 9.24 µg/mL)
- MFC [2]: 10 µM (≈ 9.24 µg/mL)
- MFC ([4]; Aspergillus niger FGSC A732): 2.5 µM (≈ 2.31 µg/mL)
- MFC [5]: 1.25 µM (≈ 1.16 µg/mL)
- MFC [6]: 2.5 µM (≈ 2.31 µg/mL)
- MFC [7]: 10 µM (≈ 9.24 µg/mL)
- MIC80 [7]: 2.5 µM (≈ 2.31 µg/mL)
- MFC (Candida albicans SC5314): 2.5 µM (≈ 2.31 µg/mL)
- MFC [9, 13]: 5 µM (≈ 4.62 µg/mL)
- MFC [10]: 5 µM (≈ 4.62 µg/mL)
